Experimental findings from patent US12685717B2, “Suppression of inflammasome activation” (Washington University, priority 2020, dated 2026) are described below.

Common to all, as to assay type: cell-based
Experiment [1] deals with inflammasome mediated IL-1β secretion from primary macrophages. In words: Macrophage inflammasome activation (IL-1β) in response to LPS + MSU crystals. As to conditions: LPS priming followed by MSU, FIG. 5. An excerpt:
See FIG. 4 for the structures of the compounds. Mechanical stimulation by MSU crystals function as a physiological activation mechanism for the putatively mechanosensitive SWELL1-LRRC8 channel complex as macrophages engulf MSU and undergo large volume changes. This is analogous to cholesterol crystals that are thought to contribute to NASH by driving simple hepatic steatosis toward fibrotic steatosis. […] First-pass effect from oral delivery, combined with the fact that SN-40X are lipophilic carboxylic acids may conspire to increase hepatic drug concentrations sufficiently to exert anti-inflammatory activity on resident hepatic macrophages and Kupffer cells that contribute to steatohepatitis.

The test system of experiment [2] is RAW 264.7 cells. In words: LPS-induced inflammatory cytokine mRNA expression in RAW 264.7 cells (qRT-PCR). As to conditions: 10 μM, 2 hours preincubation, LPS 50 ng/ml for 30 minutes, FIG. 6. The protocol:
RAW 264.7 cells were incubated with either vehicle (DMSO) or SN-401 (10 μM) and SN-406 (10 μM) for 2 hours and subsequently, cells were activated with either LPS (50 ng/ml) alone or along with SN-401 (10 μM) and SN-406 (10 μM) for 30 minutes. After the activation cells were harvested for qRT-PCR analysis (see FIG. 6, panels A-C). Relative mRNA expression for selected inflammatory markers, IL1β, TNF-α and CXCL10 from 3 independent experiments. Statistical significance between the indicated groups were calculated by using a two-tailed Student's t-test. Error bars represent mean ±s.e.m. *, P<0.05, **, P<0.01, ***, P<0.001, ****, P<0.0001.
Background: Quantitative PCR measures a nucleic acid by following its amplification.

Experiment [3] relates to SWELL1 current. Briefly: Hypotonically-induced currents in wild-type primary macrophages. As to conditions: wild-type (WT) primary macrophages, 210 mOsm; FIG. 7.
Experiment [4] deals with SWELL1 KO primary macrophages. In words: Hypotonically-induced currents in SWELL1 KO primary macrophages. As to conditions: 210 mOsm, FIG. 8. The protocol: See FIG. 7 (Panel A, Current over time plot; Panel B, Current voltage plot from (A) above). Current over time of hypotonically-induced currents in SWELL1 KO primary macrophages (210 mOsm) was measured along with DCPIB response. […] See FIG. 8 (Panel A, Current over time plot; Panel B, Current voltage plot from (A) above).

`CCCCC1(C2CCCC2)Cc2cc(OCCCCCC(=O)O)c(Cl)c(Cl)c2C1=O` (stereo not drawn) [SN-406]: the “suppression of inflammasome mediated IL-1β secretion” value in experiment [1] was “fully suppressed”. The “expression of LPS-induced inflammatory cytokine production (relative mRNA IL1β, TNF-α, CXCL10)” value in experiment [2] is given as “Inhibit”.
As for `CCCCC1(C2CCCC2)Cc2cc(OCCCC(=O)O)c(Cl)c(Cl)c2C1=O` (stereo not drawn) [SN-401], the “suppression of inflammasome mediated IL-1β secretion” value in experiment [1] was “fully suppressed”. In addition, the “expression of LPS-induced inflammatory cytokine production (relative mRNA IL1β, TNF-α, CXCL10)” value in experiment [2] is “Inhibit”.
`CCCCC1(C2CCCC2)Cc2cc(OCCCC(=O)O)c(Cl)c(Cl)c2C1=O` (stereo not drawn) [DCPIB, 4-[(2-butyl-6,7-dichloro-2-cyclopentyl-1-oxo-2,3-dihydro-1H-inden-5-yl)oxy]butanoic acid]: in experiment [3], the “inhibition of hypotonically-induced current” value is on record as “inhibition”. For the same molecule, the “response of hypotonically-induced current” value in experiment [4] was “No response”.
